# Measured values: US20060136140A1, “Method for identification and functional characterization of agents which modulate ion channel activity” (priority 2004, published 2006)
# Entries after “also recorded” stand apart in the source; their conditions may differ. Where two headings read alike, the source gives them in different places. No end group written: not given here.
# Legend:
# HERG K+ channel [1] = molecular target: T1, HERG K+ channel (Homo sapiens, UniProt Q12809)
# Experimental: Cell functional assay using atomic absorption detection—Rubidium flux out of HERG-transfected CHO cells was characterized using a Shimadzu atomic absorption system. The amount of rubidium in the extracellular and intracellular compartments was determined after depolarization with 50 mM KCl, following a 3-minute incubation with test sample. The atomization buffer included 0.1% […]/1% HNO3 to suppress ionization of rubidium.
# Minor modification of the published protocol was necessary due to different expression levels of the HERG protein in recombinant cells.
# Two injections per sample are made into a Shimadzu AA and if the cv reaches 10%, a third injection is performed; the computer selects the two closer values.
# HERG K+ channel [2] = molecular target: T1, HERG K+ channel; remark: listed apart in the source
# Experimental: Cell functional assay using membrane potential dye—A membrane potential dye-based functional assay based on the HERG-expressing CHO cells has been developed. This assay was performed on the same library in parallel with the radioligand and AA-based functional assay. HERG-expressing CHO cells were plated as for the AA assay, except they were loaded with […] DiBAC4 instead of RbCl. Test samples or controls were added inside a Molecular Devices FlexStation and readings were taken over a 25 minute time frame.
# Membrane Potential Assay Procedure—100 uL of 250,000 cells/mL in media were added to a 96-well assay plate and cultured overnight. The cells were washed with Hanks/HEPES buffer with 2 g/L of glucose (loading buffer) and 100 uL of warmed loading buffer was added. 80 uL of the FLIPR Membrane Potential dye (Molecular Devices; dissolved in loading buffer) was then added and the samples incubated for at 45 min at 37° C. Drugs (10× final concentration) in loading buffer were run along with no-drug controls. […] […] Maximum response plateau is expected at approximately 7 minutes. This value will be used for EC50 calculation. […] For the other “actives”, IC50 values will be determined in this assay and at 1 or 2 concentrations in the Rb^+ flux assay.
# One whole cell based functional assay we employed was based on the voltage sensitive dye DiBac4, using a detection method originally developed by Dr. Vince Groppi of Pharmacia-Upjohn FLIPR and FlexStation fluorescence detection systems. Cells expressing ion channels like HERG protein are hyperpolarized in the resting state. Inhibition of ion channel activities allows cells to return to normal potential. As the cell membrane becomes more positive, dye migrates into cell membrane, increasing the quantum efficiency of the dye and thus increasing fluorescence. […] Large number of compounds may be readily tested in either 96- or 384-well format. The mechanism of detection is based on the dye translocation in response to changes of the membrane environment. In certain circumstances, it may be desirable to perform confirmatory assays.
# HERG potassium current = HERG potassium current (Homo sapiens, UniProt Q12809); details: cited from earlier work
# Chain of HERG potassium current (Q12809 whole entry): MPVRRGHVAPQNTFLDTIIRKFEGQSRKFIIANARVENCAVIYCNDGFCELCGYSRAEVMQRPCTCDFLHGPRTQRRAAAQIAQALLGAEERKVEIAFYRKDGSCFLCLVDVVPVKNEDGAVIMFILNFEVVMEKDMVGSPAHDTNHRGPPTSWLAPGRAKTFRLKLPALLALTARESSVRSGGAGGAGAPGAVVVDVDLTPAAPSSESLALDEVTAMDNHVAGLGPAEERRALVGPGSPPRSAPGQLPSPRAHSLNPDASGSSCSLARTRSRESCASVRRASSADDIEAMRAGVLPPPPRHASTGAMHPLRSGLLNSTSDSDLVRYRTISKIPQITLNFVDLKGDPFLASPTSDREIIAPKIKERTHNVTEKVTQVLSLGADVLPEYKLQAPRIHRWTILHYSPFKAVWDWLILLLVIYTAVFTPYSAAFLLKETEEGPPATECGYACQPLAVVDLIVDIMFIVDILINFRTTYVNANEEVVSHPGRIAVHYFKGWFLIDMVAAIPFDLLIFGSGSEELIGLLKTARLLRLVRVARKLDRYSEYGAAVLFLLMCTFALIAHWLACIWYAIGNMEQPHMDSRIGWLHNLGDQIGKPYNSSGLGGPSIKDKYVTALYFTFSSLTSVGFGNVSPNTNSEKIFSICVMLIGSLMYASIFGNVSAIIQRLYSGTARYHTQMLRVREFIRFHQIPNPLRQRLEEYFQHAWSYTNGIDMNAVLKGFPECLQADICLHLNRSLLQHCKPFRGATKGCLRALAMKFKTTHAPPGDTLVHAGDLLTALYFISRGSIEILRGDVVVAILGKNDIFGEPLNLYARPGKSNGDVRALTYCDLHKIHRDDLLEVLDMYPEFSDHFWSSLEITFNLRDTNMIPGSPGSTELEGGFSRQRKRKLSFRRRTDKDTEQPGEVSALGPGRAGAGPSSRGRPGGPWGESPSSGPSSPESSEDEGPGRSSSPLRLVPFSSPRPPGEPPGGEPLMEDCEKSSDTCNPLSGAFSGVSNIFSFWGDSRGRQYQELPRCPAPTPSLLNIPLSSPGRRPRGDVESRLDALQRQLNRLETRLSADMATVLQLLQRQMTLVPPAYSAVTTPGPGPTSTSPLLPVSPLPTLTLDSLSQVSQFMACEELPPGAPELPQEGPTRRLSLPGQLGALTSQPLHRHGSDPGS
# HERG K+ channel [3] = molecular target: T1, HERG K+ channel; remark: listed apart in the source
# HERG protein = HERG protein (Homo sapiens, UniProt Q12809)
# Chain of HERG protein (Q12809 whole entry): as above
# Experimental: Membrane preparations and ligand binding assays—Frozen cell pellets were first thawed and homogenized in 10 to 20 ml of assay buffer. An aliquot was taken for protein determination and the remaining homogenate was centrifuged (48,000×g, 10 min., 4° C.). According to the determined protein concentration, the resultant pellet was suspended in Heylen's buffer and added to radioligand and test compound. […] Bound radioactivity was determined by liquid scintillation spectroscopy.
# Sources of radioligand—Various different radioligands were used in order to identify candidates for a given binding site.
# [4] = radiolabeled form, wild type vs recombinant CHO cells
# T1 sequence (Q12809 whole entry): as above
compound,measurement,setting,value
"CC(C)NCC(O)c1ccc(NS(C)(=O)=O)cc1 (racemic) [sotalol, (+/−)sotalol]",activity in the assay using atomic absorption,HERG K+ channel [1],modestly active
same,activity in the dye-based assay,HERG K+ channel [2],did not exhibit any activity
CC[C@H]1OC(=O)[C@H](C)[C@@H](O[C@H]2C[C@@](C)(OC)[C@@H](O)[C@H](C)O2)[C@H](C)[C@@H](O[C@@H]2O[C@H](C)C[C@H](N(C)C)[C@H]2O)[C@](C)(OC)C[C@@H](C)C(=O)[C@H](C)[C@@H](O)[C@]1(C)O [Clarithromycin],IC50,HERG potassium current,45.7 µM
Fc1ccc(C(OCCN2CCN(CCCc3ccccc3)CC2)c2ccc(F)cc2)cc1 [GBR12909],activity in all three assays,HERG K+ channel [3],consistent and relatively potent activity
c1ccc(CCCN2CCN(CCOC(c3ccccc3)c3ccccc3)CC2)cc1 [GBR12935],activity in all three assays,HERG K+ channel [3],consistent and relatively potent activity
COC(=O)[C@H]1[C@@H](c2ccc(F)cc2)C[C@@H]2CC[C@H]1N2C [WIN-35428],"binding of radiolabeled ligand, specificity for the recombinant protein",HERG protein; [4],None of these compounds indicated sufficient specificity
O=C(CCCN1CCC(O)(c2ccc(Cl)cc2)CC1)c1ccc(F)cc1 [[^3H]-Haloperidol],"binding of radiolabeled ligand, specificity for the recombinant protein",HERG protein,high binding levels with both the wild type and the recombinant CHO cells
"O=C(CCCN1CCC(O)(c2ccc(Cl)cc2)CC1)c1ccc(F)cc1 [haloperidol, Haloperidol]","inhibition of HERG channel (Rb+ efflux), dose response",HERG K+ channel [1],completely inhibited
"COC(=O)C1=C(C)NC(C)=C(C(=O)OCCN(C)Cc2ccccc2)C1c1cccc([N+](=O)[O-])c1 (centres unmarked) [nicardipine, Nicardipine]",activity in the assay using atomic absorption,"HERG K+ channel [1]; 10^−5 M, room temperature",modestly active
same,activity in the dye-based assay,"HERG K+ channel [2]; 10^−5 M, room temperature",lack of functional activity; also recorded: did not exhibit any activity
same,activity in the dye-based assay,"HERG K+ channel [2]; 10^−5 M, room temperature, listed as Nicardipine",lacked activity
"O=c1[nH]c2ccccc2n1C1CCN(CCCC(c2ccc(F)cc2)c2ccc(F)cc2)CC1 [pimozide, Pimozide]","inhibition of HERG channel (Rb+ efflux), dose response",HERG K+ channel [1],completely inhibited
same,activity in all three assays,HERG K+ channel [3],consistent and relatively potent activity
"[^125I]-BeKm-1: custom preparation of the iodinated scorpion toxin (RPTDIKCSESYQCFPVCKSRFGKTNGRCVNGFCDCF; ends and bridges not checked; also: 125I iodinated, site not given here; UniProt Q9BKB7 22-57, looked up)","binding of radiolabeled ligand, specificity for the recombinant protein",HERG protein; [4],did not observe sufficient binding
